Assay results taken from the supplement of paper PMC10307832.

Experiments:
Assay in all cases: relative viability (nuclei count vs DMSO), 5 days (fraction); higher = more cells survive
AZ505 + Bortezomib = compound: C1CCC(CC1)N(CCNCCC2=C3C(=C(C=C2)O)NC(=O)CO3)C(=O)CCNCCC4=CC(=C(C=C4)Cl)Cl [AZ505] + CC(C)C[C@H](NC(=O)[C@H](Cc1ccccc1)NC(=O)c1cnccn1)B(O)O [Bortezomib] (partner 0.002 µM)
Outline: (§1)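 A single step with final 0.05% Triton X-100, 1% formaldehyde and 1 ug/ml Hoechst fixed the cells and stained nuclei 5 days after treatment. Lung cancer cell lines in 1536-well plates had been treated by pin tool the day after seeding with one drug alone or a fixed anchor-drug dose plus five library-drug doses (not always all listed) in √10 steps, and nuclei were counted on 4× images. Relative viability is the ratio of nuclei in treated wells to nuclei in vehicle wells, taken as the median of duplicate plates.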

AZ505 + Pictilisib = compound: C1CCC(CC1)N(CCNCCC2=C3C(=C(C=C2)O)NC(=O)CO3)C(=O)CCNCCC4=CC(=C(C=C4)Cl)Cl [AZ505] + CS(=O)(=O)N1CCN(Cc2cc3nc(-c4cccc5[nH]ncc45)nc(N4CCOCC4)c3s2)CC1 [Pictilisib] (partner 1 µM)
Outline: as §1

AZ505 + Olaparib = compound: C1CCC(CC1)N(CCNCCC2=C3C(=C(C=C2)O)NC(=O)CO3)C(=O)CCNCCC4=CC(=C(C=C4)Cl)Cl [AZ505] + O=C(c1cc(Cc2n[nH]c(=O)c3ccccc23)ccc1F)N1CCN(C(=O)C2CC2)CC1 [Olaparib] (partner 8 µM)
Outline: as §1

Dactolisib + Dasatinib = compound: Cn1c(=O)n(-c2ccc(C(C)(C)C#N)cc2)c2c3cc(-c4cnc5ccccc5c4)ccc3ncc21 [Dactolisib] + Cc1nc(Nc2ncc(C(=O)Nc3c(C)cccc3Cl)s2)cc(N2CCN(CCO)CC2)n1 [Dasatinib] (partner 0.075 µM)
Outline: as §1

Cell Line | relative viability (AZ505 + Bortezomib; first compound 0.08 µM) | relative viability (AZ505 + Bortezomib; first compound 0.253 µM) | relative viability (AZ505 + Bortezomib; first compound 0.8 µM) | relative viability (AZ505 + Bortezomib; first compound 2.53 µM) | relative viability (AZ505 + Bortezomib; first compound 8 µM) | relative viability (AZ505 + Pictilisib; first compound 0.08 µM) | relative viability (AZ505 + Pictilisib; first compound 0.253 µM) | relative viability (AZ505 + Pictilisib; first compound 0.8 µM) | relative viability (AZ505 + Pictilisib; first compound 2.53 µM) | relative viability (AZ505 + Pictilisib; first compound 8 µM) | relative viability (AZ505 + Olaparib; first compound 0.08 µM) | relative viability (AZ505 + Olaparib; first compound 0.253 µM) | relative viability (AZ505 + Olaparib; first compound 0.8 µM) | relative viability (AZ505 + Olaparib; first compound 2.53 µM) | relative viability (AZ505 + Olaparib; first compound 8 µM) | relative viability (Dactolisib + Dasatinib; first compound 0.002 µM) | relative viability (Dactolisib + Dasatinib; first compound 0.006325 µM) | relative viability (Dactolisib + Dasatinib; first compound 0.02 µM) | relative viability (Dactolisib + Dasatinib; first compound 0.06325 µM) | relative viability (Dactolisib + Dasatinib; first compound 0.2 µM)
BEN | 0.744 | 0.806 | 0.809 | 0.861 | 0.842 | 0.498 | 0.611 | 0.565 | 0.599 | 0.622 | 0.998 | 1.04 | 1.04 | 1.04 | 1.21 | 0.333 | 0.288 | 0.307 | 0.329 | 0.262
ChaGo-K-1 | 0.945 | 0.91 | 1.04 | 1 | 1.13 | 0.824 | 0.58 | 0.691 | 0.819 | 0.901 | 0.404 | 0.439 | 0.431 | 0.402 | 0.469 | 0.584 | 0.56 | 0.597 | 0.523 | 0.556
NCI-H322M | 1.29 | 1.15 | 1.39 | 1.22 | 1.34 | 0.517 | 0.422 | 0.562 | 0.508 | 0.504 | 0.576 | – | 0.707 | 0.768 | 0.844 | 0.267 | 0.256 | 0.243 | 0.234 | 0.235
NCI-H520 | 0.588 | 0.504 | 0.496 | 0.706 | 0.762 | 0.264 | 0.273 | 0.284 | 0.272 | 0.259 | 0.288 | 0.279 | 0.367 | 0.302 | 0.349 | 0.182 | 0.177 | 0.149 | 0.122 | 0.17
ABC-1 | 0.31 | 0.281 | 0.303 | 0.313 | 0.256 | 0.711 | 0.618 | 0.759 | 0.662 | 0.57 | 0.688 | – | 0.841 | 0.807 | 1.2 | 0.57 | 0.486 | 0.416 | 0.392 | 0.282
NCI-H1666 | 0.799 | 0.708 | 0.658 | 0.778 | 0.705 | 0.442 | 0.404 | 0.421 | 0.408 | 0.456 | 0.736 | 0.812 | 0.721 | 0.731 | 0.764 | 0.877 | 0.793 | 0.791 | 0.677 | 0.588
NCI-H1993 | 0.894 | 1.09 | 0.937 | 1.25 | 1.04 | 0.679 | 0.798 | 0.807 | 0.768 | 0.776 | 0.995 | 1.12 | 1.14 | 1.01 | 1.16 | 0.553 | 0.413 | 0.498 | 0.505 | 0.52
NCI-H1975 | 0.333 | 0.41 | 0.335 | 0.327 | 0.356 | 0.264 | 0.303 | 0.267 | 0.277 | 0.283 | 0.747 | 0.883 | 0.75 | 0.775 | 0.904 | 0.35 | 0.305 | 0.246 | 0.167 | 0.135
